Reference: patent publication US9586928B2 (The Scripps Research Institute, priority 2011, dated 2017)

Columns and labels:
RORβ = target: T1, RORβ (Homo sapiens, UniProt Q92753); experiment: Binding of radiolabeled T1317 to RORβ; details: radiolabeled compound
T1 sequence (Q92753 1-470): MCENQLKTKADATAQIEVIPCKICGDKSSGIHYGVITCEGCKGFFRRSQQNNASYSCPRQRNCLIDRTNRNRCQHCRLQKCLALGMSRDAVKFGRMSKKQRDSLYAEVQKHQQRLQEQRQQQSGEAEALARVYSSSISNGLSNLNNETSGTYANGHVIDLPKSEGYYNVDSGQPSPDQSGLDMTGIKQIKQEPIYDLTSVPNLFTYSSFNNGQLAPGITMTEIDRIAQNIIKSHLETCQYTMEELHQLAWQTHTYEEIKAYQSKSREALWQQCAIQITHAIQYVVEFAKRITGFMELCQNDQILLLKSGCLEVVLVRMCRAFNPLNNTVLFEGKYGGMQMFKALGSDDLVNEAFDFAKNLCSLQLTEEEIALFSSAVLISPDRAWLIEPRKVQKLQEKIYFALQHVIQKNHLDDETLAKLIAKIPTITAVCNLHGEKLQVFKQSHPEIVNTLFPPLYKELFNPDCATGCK

RORα [1] = target: T2, RORα (Homo sapiens, UniProt P35398); experiment: Gal4-RORα LBD / UAS luciferase cotransfection assay; format: cell-based; details: Gal4 chimeric cotransfection
T2 construct: expressed in transfected cells; host or cells: HEK293T
T2 sequence (P35398 272-510 limits assumed): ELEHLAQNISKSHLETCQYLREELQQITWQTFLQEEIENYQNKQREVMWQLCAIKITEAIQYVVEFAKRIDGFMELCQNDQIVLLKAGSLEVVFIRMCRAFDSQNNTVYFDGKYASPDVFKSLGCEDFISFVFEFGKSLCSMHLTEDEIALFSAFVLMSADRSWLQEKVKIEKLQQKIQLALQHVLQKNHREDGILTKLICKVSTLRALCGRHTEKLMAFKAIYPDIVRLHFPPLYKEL

LXR = target: T3, LXR (Homo sapiens, UniProt Q13133); experiment: Gal4-LXRα / UAS luciferase cotransfection assay; format: cell-based; details: Gal4 chimeric cotransfection
T3 sequence (Q13133 209-447 limits assumed): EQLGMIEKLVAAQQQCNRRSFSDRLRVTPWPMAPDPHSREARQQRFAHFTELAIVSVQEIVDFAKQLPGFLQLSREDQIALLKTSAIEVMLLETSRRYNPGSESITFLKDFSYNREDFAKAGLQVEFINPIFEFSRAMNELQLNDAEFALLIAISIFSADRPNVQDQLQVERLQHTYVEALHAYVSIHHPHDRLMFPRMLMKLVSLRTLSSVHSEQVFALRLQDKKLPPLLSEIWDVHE

FXR = target: T4, FXR (Homo sapiens, UniProt Q96RI1); experiment: Gal4-FXR / UAS luciferase cotransfection assay; format: cell-based; details: Gal4 chimeric cotransfection
T4 sequence (Q96RI1 262-486 limits assumed): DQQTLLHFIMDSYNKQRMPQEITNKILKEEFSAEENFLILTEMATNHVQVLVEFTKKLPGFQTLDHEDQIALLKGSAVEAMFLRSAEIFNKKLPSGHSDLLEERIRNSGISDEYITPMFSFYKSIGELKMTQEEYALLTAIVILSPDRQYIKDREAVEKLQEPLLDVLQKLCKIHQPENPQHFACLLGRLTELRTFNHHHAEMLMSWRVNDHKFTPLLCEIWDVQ

RORα [2] = target: T5, RORα (Homo sapiens, UniProt P35398); experiment: IL-17 promoter luciferase reporter with full-length RORα; format: cell-based
T5 sequence (P35398 1-523): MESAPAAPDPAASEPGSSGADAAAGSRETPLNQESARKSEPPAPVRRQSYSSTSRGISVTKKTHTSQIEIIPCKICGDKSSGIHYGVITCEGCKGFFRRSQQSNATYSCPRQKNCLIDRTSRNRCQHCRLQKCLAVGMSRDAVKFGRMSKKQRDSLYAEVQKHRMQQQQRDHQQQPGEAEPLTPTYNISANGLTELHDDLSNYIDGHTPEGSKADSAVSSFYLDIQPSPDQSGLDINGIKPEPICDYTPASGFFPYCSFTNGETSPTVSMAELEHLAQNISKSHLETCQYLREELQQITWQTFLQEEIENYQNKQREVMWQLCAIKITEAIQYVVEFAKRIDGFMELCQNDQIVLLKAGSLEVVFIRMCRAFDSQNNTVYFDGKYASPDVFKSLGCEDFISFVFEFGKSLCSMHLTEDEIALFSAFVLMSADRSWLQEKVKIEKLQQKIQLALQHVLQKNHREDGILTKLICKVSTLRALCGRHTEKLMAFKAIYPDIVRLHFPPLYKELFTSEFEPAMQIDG
Excerpt: Since RORα and RORγ are critical regulators of IL-17 gene expression, we examined whether SR1555 would affect RORα and RORγ-dependent regulation of an IL-17 promoter driven luciferase reporter construct. HEK293 cells were transiently transfected with an IL-17 reporter, either full-length RORα or RORγ, and treated with an increasing concentration of SR1555[8]. In a dose dependent manner, SR1555 suppressed IL-17 promoter driven activity by RORγ but not RORα, further confirming that SR1555 is indeed a RORγ-specific inverse agonist (FIG. 1d). Finally, using EL4 cells, a murine thymoma which endogenously express RORα, RORγ t, and IL-17A, we examined whether SR1555 affected endogenous IL-17 gene expression. EL4 cells were treated with DMSO or SR1555 for 24 hours and analyzed for Il17a gene expression by quantitative real-time PCR.
Cotransfection assays were performed as previously described in HEK293 cells (Gal4 cotransfection assay or IL-17 luciferase reporter)[8]. […]
HEK293 cells were maintained in Dulbecco's modified Eagle's medium (DMEM) supplemented with 10% fetal bovine serum at 37° C. under 5% CO2. […] The luciferase levels were assayed following additional 20 hour incubation by one-step addition of BriteLite Plus (Perkin Elmer) and read using an Envision (Perkin Elmer). […]

EL4 cells = experiment: Il17a gene expression in EL4 cells by quantitative real-time PCR; format: cell-based, murine; details: 10 μM, 24 hours
Protocol: […]. Cotransfection assays were performed as previously described in HEK293 cells (Gal4 cotransfection assay or IL-17 luciferase reporter)[8]. HEK293 and the mouse lymphoma EL4 (ATCC) cells were maintained in DMEM supplemented with 10% FBS plus antibiotics (penicillin and streptomycin; Invitrogen).
(§1) RNA extraction and QRT-PCR analysis was performed as previously described.

T regulatory cells = experiment: T regulatory cell differentiation of splenocytes (RTPCR, Foxp3 FACS); format: cell-based, murine; details: 10 μM
Protocol: Therefore, the environmental cues associated with the concentration of TGF[…] dictates the balance between TH17 and T regulatory cell differentiation. In light of the reciprocal relationship between these two cell types, we assessed whether SR1555 affected the development of T regulatory cells in vitro. Splenocytes were cultured under T regulatory cell polarizing conditions (TGFβ and IL-2) for 3 days. […] To determine whether the gene expression data would correlate with protein expression, we again cultured splenocytes for 5 days under T regulatory cell polarizing conditions in the presence of DMSO or SR1555 and examined the expression of Foxp3 by intracellular cytokine FACS analysis.
Splenocytes were differentiated under the following conditions: iTreg-10 μg/mL anti-IFNγ, 10 μg/mL anti-IL-4, and 2 ng/mL TGFβ (R&D Systems); 20 ug/mL anti-IFNγ, 20 ug/mL anti-IL-4, 1 ng/mL TGFβ, and 10 ng/mL IL-6 (R&D Systems) for TH17 conditions. All cultures were stimulated with 1 μg/mL anti-CD3 (eBiosciences) and 1 μg/mL anti-CD28 (eBiosciences). Four to five days after activation, all cells were restimulated with 5 ng/mL phorbol-12-myristate-13-acetate (PMA) (Sigma) and 500 ng/mL ionomycin (Sigma) for 2 hours with the addition of GolgiStop (BD Bioscience) for an additional 2 hours before intracellular staining. Cells were cultured in RPMI 1640 medium (Invitrogen) with 10% FBS and antibiotics.
as §1

RORα [3] = target: T2, RORα; experiment: Competitive radioligand binding assay on RORα; details: data not shown
Excerpt: Concurrent with our characterization of SR1001, several other groups identified RORγ-specific inverse agonists. Similar to SR1001, these ligands inhibited TH17 cell development and function. […] Compounds were identified using a screening approach similar to SR1001 and a RORγ-selective inverse agonist. SR1555, was identified (FIG. 1a). Compound SR1555 is shown as compound 3 in Table 1. […] Next we examined the direct binding of SR1555 to RORα and RORγ in competitive radioligand binding assays.

[4] = T regulatory polarizing conditions, 3 days

SMILES	binding to RORβ (RORβ)	effect on transcriptional activity of RORα (RORα [1])	effect on LXR activity (LXR)	effect on transcriptional activity of FXR (FXR)	IL-17 promoter driven activity by RORα (RORα [2])	inhibition of Il17a gene expression (EL4 cells)	expression of Foxp3+ T cells (T regulatory cells; 5 days, FACS)	gene expression of Foxp3 (T regulatory cells; [4])	gene expression of Rorγt (T regulatory cells; [4])	displacement of [3H]T0901317 from RORα (RORα [3])
O=S(=O)(c1ccccc1)N(CC(F)(F)F)c1ccc(C(O)(C(F)(F)F)C(F)(F)F)cc1 [Compound T1317]	does in fact bind to RORβ	–	–	–	–	–	–	–	–	–
CC(=O)N1CCN(Cc2ccc(-c3ccc(C(O)(C(F)(F)F)C(F)(F)F)cc3)cc2)CC1 [SR1555]	–	devoid of LXR, FXR, and RORα activity	devoid of LXR, FXR, and RORα activity	devoid of LXR, FXR, and RORα activity	not RORα	greater than 70%	almost two-fold increase	effectively increased the gene expression of Foxp3	suppressing the gene expression of Rorγt	not RORα
